In patent publication US10829798B2, “DNA-linked enzyme-coupled assays” (THE REGENTS OF THE UNIVERSITY OF CALIFORNIA, priority 2014, dated 2020):

Experiments:
[1] = target: T1, OleD (Streptomyces antibioticus, UniProt Q53685, P55A/R82V/R83E/T84P); assay: qPCR DLEnCA, cell-free transcription/translation-derived OleD; assay type: biochemical
T1 construct: made in house; host or cells: PURExpress In Vitro Protein Synthesis Kit (NEB E6800L), cell-free transcription/translation, linear DNA with T7 promoter
T1 sequence (Q53685 other isoform, or with tags, fused parts or gaps P55A/R82V/R83E/T84P): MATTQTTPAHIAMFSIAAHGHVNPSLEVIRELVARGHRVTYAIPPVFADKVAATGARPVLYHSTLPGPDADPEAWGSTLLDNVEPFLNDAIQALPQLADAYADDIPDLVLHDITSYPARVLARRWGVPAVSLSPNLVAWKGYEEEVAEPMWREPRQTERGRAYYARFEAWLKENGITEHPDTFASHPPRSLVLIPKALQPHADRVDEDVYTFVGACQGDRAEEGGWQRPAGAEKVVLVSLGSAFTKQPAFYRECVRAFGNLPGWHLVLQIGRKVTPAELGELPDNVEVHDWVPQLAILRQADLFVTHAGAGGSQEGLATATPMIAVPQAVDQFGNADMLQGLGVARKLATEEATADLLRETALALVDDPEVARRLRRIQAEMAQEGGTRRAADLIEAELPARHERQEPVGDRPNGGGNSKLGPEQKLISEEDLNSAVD
Protocol: FIG. 4A-FIG. 4D. qPCR DLEnCA and substrate specificity studies. A. Chemicals used as substrates in subsequent assays: (i) known substrates of OleD; (ii) flavone library; (iii) known substrates of GT05 (UGT72B1 (Q9M156)) and GT06 (UGT89B1 (AT1 G73880)). B. DNA encoding OleD (5 nM) was incubated in a cell-free transcription/translation system for 3 hours at 37° C., followed by the addition of chemical (1 mM) and UDP-Glc (2 μM). After a subsequent incubation of 3 hours, TbGT and probe (0.2 nM) were added. After probe purification and MfeI digestion, probe integrity was identified using qPCR. Percent recovery of probe is reported (n=8; error bars=standard error). C. DNA encoding OleD (5 nM) was incubated for 3 hours at 37° C. in a cell-free transcription/translation system, followed by the addition of flavone (1 mM) and UDP-Glc (2 μM). After a subsequent incubation of 3 hours, TbGT and probe (0.2 nM) were added. After probe purification and MfeI addition, probe integrity was identified using qPCR. Percent recovery of probe is reported (n=8; error bars=standard error). D. DNA encoding OleD, GT05, or GT06 (5 nM) were incubated for 3 hours at 37° C. in a cell-free transcription/translation system, followed by the addition of chemical (1 mM) and UDP-Glc (2 μM). After a subsequent incubation of 3 hours, TbGT and probe (0.2 nM) were added. After probe purification and MfeI digestion, probe integrity was identified using qPCR. Percent recovery of probe is reported as a heat map (n=8) (specific recovery figures and percent error can be found in FIG. 16). *=p<0.05 vs. no chemical control.
PCR tubes were used for most reactions. All incubations were performed at 37° C. Assays were initiated upon the addition of linear DNA (5 nM final concentration) to 4 μl PURExpress Solution A and 3 μl PURExpress Solution B. Samples were incubated at 37° C. for 3 hours prior to addition of UDP-Glucose and chemical (1 mM final concentration) in DMSO. Samples were incubated for an additional 3 hours prior to addition of 1 unit T4 Phage β-glucosyltransferase containing 0.2 nM probe. Samples were incubated an additional 3 hours before DNA was purified using the Zymo DNA Clean and Concentrator Kit. Samples were digested overnight with MfeI prior to analysis. Concentration of intact DNA probe was identified using the iQ SYBR Green Supermix (1708880) with probe DNA as standards. qPCR was carried out on the Bio-Rad iQ5 Multicolor Real-Time PCR Detection System using primers P13 and P14 with the following temperatures; 94° C. 30 seconds followed by 40 cycles of 94° C. 10 seconds and 55° C. for 30 seconds. All results were compared to uncut probe DNA that had been carried through the process as negative controls (considered full recovery of probe).
The second DLEnCA workflow developed involved qPCR as a final readout (qPCR DLEnCA, FIG. 1—qPCR workflow). A linear fragment of DNA was modified to contain 5-hm-cytosines throughout. To determine a threshold for probe protection under conditions amenable to the qPCR DLEnCA workflow, UDP-Glc was titrated into mixtures of the cell-free transcription/translation system containing 5-hm-cytosine-modified DNA probe (0.2 nM probe DNA containing 0.1 μM modified 5-hm-cytosines) and TbGT. After digestion with the restriction enzyme MfeI, the amount of intact DNA probe was determined using qPCR (FIG. 3C). […] A threshold for protection was identified at a 20:1 molar ratio of UDP-Glc to total 5-hm-cytosine in probe DNA; this UDP-Glc amount was used as the starting concentration of UDP-Glc for all qPCR experiments. To test the feasibility of qPCR DLEnCA, OleD was again tested upon the substrate kaempferol (FIG. 3D), using DNA encoding a promoter and OleD as starting material. As expected, when all components of the assay were present, 27% of intact probe DNA was recovered. […]

[2] = target: T1, OleD; assay: FRET DLEnCA, cell-free transcription/translation-derived OleD, fluorescence readout; assay type: biochemical; settings: all components present; chemical 1 mM, UDP-Glc 5 μM, FRET probe 250 nM
Protocol: FIG. 3A-FIG. 3D. DNA-Linked Enzyme-Coupled Assay using cell-free transcription/translation system. A. UDP-Glc was titrated into reactions containing 250 nM FRET probe, TbGT, and a cell-free transcription/translation system. After 3 hours incubation at 37° C., probe was digested with MfeI and resulting digests were analyzed using fluorescent spectrometry (n=6, error bars=standard error). B. DNA encoding OleD (5 nM) was incubated in a cell-free transcription/translation system for 3 hours at 37° C., followed by the addition of UDP-Glucose (5 μM) and kaempferol (1 mM). After a subsequent incubation of 3 hours, TbGT and FRET probe (250 nM) were added. Following MfeI addition, fluorescence formation was monitored using fluorometry. […] Digests were analyzed using qPCR. […]
Assays were performed using 250 nM fluorescent probe (Sequence provided in FIG. 21) in place of the linear probe. Fluorescence was detected using a Tecan Safire^2 using the following settings: excitation wavelength 550 nm, emission wavelength 564 nm, excitation bandwidth 5 nm, emission bandwidth 5 nm, Gain (manual) 120, Number of reads 10, FlashMode High Sensitivity, Integration time 100 μs, lag time 0 μs, Z-position 12000 μm, Temperature 37° C. Development of fluorescence after MfeI addition was monitored over an 8 hour period. […]

In the case of O=c1c(O)c(-c2ccc(O)cc2)oc2cc(O)cc(O)c12 [I, kaempferol], the “recovery of intact probe DNA” value ([1]; OleD DNA 5 nM, chemical 1 mM, UDP-Glc 2 μM, probe 0.2 nM, low recovery = substrate glucosylated) is reported as 27%, the “activity of OleD with chemical” value ([1]; tested against I, X, XI, XII, qPCR DLEnCA, verified with LCMS) is reported as “showed activity” and the “fluorescent reading after MfeI digestion of FRET probe” value [2] is reported as 50 RFU.
